Experimental data published in patent US8334371B2, “Lactic acid bacteria-derived double-stranded RNA” (Kikkoman Corporation, priority 2007, dated 2012).

B1: DSR2: synthetic double-stranded RNA, 119 mer, SEQ ID NO. 6, made by in vitro transcription and annealing (nucleic acid, listed as Tetragenococcus halophilus)
chain: AAAAAATTACCTTTTTCTATTCGTGAGAAAATTTCTCAAGCCGACAAGTATCATAAAAAATTTGCTTTTGAACACTTTTTGAAGGTGTTTCTCTATGGCATCGATCATGAGTGTGAAAG
modifications: RNA, all phosphodiester, T or U not given here; further chemistry not fully specified
notes: 6, made by in vitro transcription and annealing

Test system: bone marrow-derived dendritic cells
Experiment: Promotion of interferon β production from bone marrow-derived dendritic cells (PBL interferon β assay kit)
Format: cell-based, mouse
Experimental: In addition, measurement was also carried out on interferon β, which has been reported to be involved in the production of interleukin 12. Activity promoting production of interferon β from bone marrow-derived dendritic cells (after culturing for 6 hours using an interferon β assay kit (PBL)) was as shown in FIG. 8.
At this time, interferon […], which has been reported to be involved in interleukin 12 production, was also measured.
(§1) Bone marrow-derived dendritic cells were prepared in the same manner as Example 2. Synthetic RNA was added to the bone marrow-derived dendritic cells followed by co-culturing for 6 hours in a 5% CO2 incubator at 37° C. Interferon β production promoting activity was measured using an interferon β assay kit manufactured by PBL.
as §1, with “for 24” for “for 6”, “using the” for “using an”

Molecule	interferon β production promoting activity (culturing for 6 hours, concentration response)	interferon β production promoting activity (dendritic cells from TLR3-knockout mice vs wild type, 6 hours)	interferon β production from bone marrow-derived dendritic cells (co-culturing for 24 hours)
DSR1: synthetic double-stranded RNA, 46 mer, SEQ ID NO. 5, sequence cloned from Th221 double-stranded RNA fraction (AAATTTTCAAAAACCTGTTTTGCTTCTTCTAAAAATCCAATTGAAA; listed as DNA, chemistry not given here; listed as Tetragenococcus halophilus)	increased dependent on the concentration	decreased	
B1			indicated to be produced
